Results on twelve molecules are retold here after ChEMBL document CHEMBL1201862, “PubChem BioAssay data set” (2004).

For assay [1], the target named is T1, DNA repair and recombination protein RAD54-like (Homo sapiens, UniProt Q92698).
T1 sequence (Q92698 whole entry): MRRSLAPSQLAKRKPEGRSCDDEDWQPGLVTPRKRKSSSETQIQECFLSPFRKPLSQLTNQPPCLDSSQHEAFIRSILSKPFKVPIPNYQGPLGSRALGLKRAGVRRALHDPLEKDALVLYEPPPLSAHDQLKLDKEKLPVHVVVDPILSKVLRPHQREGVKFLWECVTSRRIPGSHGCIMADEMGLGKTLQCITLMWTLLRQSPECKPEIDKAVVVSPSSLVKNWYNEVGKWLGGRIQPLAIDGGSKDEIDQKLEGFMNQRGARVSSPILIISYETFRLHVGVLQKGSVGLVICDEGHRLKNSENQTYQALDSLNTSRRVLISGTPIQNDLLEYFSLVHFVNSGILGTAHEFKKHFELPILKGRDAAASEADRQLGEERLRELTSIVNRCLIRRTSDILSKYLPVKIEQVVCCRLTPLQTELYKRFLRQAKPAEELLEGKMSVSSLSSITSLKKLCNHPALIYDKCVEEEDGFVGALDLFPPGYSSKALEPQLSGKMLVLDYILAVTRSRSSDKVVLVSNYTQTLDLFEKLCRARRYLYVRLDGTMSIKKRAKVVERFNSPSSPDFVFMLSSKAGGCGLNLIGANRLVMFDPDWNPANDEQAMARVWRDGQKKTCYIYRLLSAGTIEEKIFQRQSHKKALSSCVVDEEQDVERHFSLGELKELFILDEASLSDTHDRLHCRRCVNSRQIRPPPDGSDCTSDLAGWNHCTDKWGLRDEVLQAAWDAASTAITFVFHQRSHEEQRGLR
The assay can be described thus: RAD54 Holliday junction migration blockers – biochemical, fluorescence, cherry-picked samples, dose series, confirmation (AID 651657). In kind it is functional.

Assay [2] has as its target T2, Sentrin-specific protease 6 (Homo sapiens, UniProt Q9GZR1).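 Also: Luminescence-based dose-response confirmatory assay of SENP6 inhibition, following up an ultra-high-throughput screen.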
T2 sequence (Q9GZR1 whole entry): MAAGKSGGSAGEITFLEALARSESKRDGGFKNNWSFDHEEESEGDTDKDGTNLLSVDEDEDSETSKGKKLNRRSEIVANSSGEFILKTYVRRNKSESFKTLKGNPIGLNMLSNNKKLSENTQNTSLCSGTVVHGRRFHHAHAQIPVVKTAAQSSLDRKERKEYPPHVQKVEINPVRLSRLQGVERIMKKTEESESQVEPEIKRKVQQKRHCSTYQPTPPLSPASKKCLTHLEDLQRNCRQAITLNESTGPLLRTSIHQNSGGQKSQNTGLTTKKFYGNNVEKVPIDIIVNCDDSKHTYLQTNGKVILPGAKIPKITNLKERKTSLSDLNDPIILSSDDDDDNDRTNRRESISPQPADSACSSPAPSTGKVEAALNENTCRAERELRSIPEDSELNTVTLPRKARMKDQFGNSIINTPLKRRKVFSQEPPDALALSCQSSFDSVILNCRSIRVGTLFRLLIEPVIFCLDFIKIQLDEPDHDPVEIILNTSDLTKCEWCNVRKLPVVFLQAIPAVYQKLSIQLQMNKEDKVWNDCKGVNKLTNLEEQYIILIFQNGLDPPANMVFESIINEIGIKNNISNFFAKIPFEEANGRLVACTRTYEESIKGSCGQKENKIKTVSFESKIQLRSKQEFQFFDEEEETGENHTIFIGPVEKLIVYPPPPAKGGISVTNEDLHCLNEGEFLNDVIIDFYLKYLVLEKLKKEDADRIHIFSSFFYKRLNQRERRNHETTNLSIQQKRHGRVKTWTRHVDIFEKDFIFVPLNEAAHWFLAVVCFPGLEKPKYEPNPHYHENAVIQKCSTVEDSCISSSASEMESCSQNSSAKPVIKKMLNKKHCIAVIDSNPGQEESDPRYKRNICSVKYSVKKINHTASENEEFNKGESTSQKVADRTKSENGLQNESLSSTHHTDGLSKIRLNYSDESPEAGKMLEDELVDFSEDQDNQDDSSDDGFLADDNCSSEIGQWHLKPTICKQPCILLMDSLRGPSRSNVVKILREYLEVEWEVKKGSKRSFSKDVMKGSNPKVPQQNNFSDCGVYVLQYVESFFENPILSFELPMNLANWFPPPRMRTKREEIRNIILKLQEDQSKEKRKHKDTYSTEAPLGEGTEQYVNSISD
Type of assay: functional.

Assay [3] addresses T3, Sentrin-specific protease 8 (Homo sapiens, UniProt Q96LD8).
T3 sequence (Q96LD8 whole entry): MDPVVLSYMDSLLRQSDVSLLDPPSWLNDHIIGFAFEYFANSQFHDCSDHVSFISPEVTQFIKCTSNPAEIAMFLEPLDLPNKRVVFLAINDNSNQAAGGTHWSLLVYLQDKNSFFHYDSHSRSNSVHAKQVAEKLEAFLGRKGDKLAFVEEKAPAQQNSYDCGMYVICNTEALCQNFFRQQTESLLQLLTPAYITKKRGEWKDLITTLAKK
Type of assay: functional.

Another assay has as its target T4, Caspase-3 (Homo sapiens, UniProt P42574).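 Also: Dose-response selectivity test against caspase-3 for candidate inhibitors of sentrin-specific proteases (SENPs).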
T4 sequence (P42574 whole entry): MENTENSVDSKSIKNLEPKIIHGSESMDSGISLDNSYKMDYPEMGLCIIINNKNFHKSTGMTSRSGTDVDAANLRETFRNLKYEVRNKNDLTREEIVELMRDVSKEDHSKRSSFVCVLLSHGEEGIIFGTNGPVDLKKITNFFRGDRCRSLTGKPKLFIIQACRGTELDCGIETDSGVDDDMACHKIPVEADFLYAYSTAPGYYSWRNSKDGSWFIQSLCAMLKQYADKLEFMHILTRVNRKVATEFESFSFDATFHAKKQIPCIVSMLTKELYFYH
In kind it is functional.

In assay [4] the target is T5, Sentrin-specific protease 7 (Homo sapiens, UniProt Q9BQF6).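 Also: Luminescence-based dose-response confirmation of ultra-high-throughput screening hits, measuring inhibition of SENP7.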
T5 sequence (Q9BQF6 whole entry): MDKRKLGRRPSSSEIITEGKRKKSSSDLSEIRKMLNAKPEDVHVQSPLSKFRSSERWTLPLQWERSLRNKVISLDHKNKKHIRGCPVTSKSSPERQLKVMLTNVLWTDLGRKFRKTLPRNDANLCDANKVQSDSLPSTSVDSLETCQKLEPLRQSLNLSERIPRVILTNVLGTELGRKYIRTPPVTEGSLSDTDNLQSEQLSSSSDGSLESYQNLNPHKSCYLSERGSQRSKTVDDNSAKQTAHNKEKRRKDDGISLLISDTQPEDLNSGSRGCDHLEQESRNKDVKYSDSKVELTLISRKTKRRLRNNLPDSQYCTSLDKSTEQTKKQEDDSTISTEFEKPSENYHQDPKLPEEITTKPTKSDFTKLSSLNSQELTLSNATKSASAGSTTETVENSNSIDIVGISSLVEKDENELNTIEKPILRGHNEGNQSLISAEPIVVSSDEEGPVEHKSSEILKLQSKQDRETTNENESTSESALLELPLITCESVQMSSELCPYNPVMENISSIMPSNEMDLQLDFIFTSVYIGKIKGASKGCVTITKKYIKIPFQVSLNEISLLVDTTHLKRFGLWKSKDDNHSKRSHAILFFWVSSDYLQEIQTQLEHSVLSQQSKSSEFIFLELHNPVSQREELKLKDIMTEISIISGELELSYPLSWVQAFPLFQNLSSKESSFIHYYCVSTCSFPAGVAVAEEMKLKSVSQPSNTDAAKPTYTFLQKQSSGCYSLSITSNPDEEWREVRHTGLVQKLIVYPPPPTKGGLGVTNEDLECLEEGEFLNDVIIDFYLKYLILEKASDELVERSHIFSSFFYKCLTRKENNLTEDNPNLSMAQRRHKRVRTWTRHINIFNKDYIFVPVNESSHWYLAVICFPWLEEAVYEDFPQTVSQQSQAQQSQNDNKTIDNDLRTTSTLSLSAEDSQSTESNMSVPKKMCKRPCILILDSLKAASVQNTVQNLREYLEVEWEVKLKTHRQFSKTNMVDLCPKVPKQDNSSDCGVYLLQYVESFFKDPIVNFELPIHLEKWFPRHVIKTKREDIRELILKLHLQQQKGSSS
Type of assay: functional.

Assay [5] addresses T6, Mannose-6-phosphate isomerase (Homo sapiens, UniProt P34949).
T6 sequence (P34949 whole entry): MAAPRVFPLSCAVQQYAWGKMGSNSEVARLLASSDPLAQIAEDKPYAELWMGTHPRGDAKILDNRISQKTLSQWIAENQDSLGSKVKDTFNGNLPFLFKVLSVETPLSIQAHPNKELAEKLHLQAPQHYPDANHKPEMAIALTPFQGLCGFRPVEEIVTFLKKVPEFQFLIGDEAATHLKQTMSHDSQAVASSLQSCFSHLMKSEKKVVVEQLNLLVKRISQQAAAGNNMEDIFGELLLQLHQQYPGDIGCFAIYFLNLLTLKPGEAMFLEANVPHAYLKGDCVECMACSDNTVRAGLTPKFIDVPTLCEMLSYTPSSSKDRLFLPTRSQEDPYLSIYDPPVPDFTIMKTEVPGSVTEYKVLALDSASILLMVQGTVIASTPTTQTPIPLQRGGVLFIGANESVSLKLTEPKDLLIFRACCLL
Kind of assay: MPI inhibition at elevated mannose 6-phosphate – biochemical, fluorescence intensity, high mannose 6-phosphate, primary screen (AID 1220).

For the next assay, the target named is T7, Protein skinhead-1 (Caenorhabditis elegans, UniProt P34707).
T7 sequence (P34707 whole entry): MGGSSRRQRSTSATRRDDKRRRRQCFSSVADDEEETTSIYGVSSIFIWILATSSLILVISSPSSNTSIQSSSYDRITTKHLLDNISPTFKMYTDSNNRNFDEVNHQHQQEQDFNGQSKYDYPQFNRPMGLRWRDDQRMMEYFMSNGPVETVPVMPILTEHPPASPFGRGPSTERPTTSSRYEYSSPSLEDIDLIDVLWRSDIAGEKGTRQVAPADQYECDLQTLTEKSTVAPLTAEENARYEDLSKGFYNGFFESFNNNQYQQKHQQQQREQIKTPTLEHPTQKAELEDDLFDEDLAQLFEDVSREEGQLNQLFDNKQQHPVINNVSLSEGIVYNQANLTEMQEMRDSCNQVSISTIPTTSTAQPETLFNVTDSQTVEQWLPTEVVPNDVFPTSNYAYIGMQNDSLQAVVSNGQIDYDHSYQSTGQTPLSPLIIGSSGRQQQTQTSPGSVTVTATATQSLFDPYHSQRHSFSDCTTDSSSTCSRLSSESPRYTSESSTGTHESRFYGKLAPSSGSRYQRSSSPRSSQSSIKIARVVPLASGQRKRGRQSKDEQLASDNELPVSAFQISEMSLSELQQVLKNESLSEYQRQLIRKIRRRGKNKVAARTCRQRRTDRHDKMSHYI
Type of assay: functional.

The source made the active and inactive calls. Rule as the data show it, for most assays here: actives have a measured IC50 and inactives only a lower limit.

Regarding `CCN(CC)CCNC(=O)c1cc2cc3ccc(OC)cc3nc2o1`, the AC50 in assay [1] was 40.7 µM (active).
Consider `CN1CCN(CCCNC(=O)c2cc3c(=O)oc4ccccc4c3s2)CC1`, for which the AC50 in assay [1] is 38.1 µM (active).
As for `CC(=O)c1sc(N/N=C\c2ccccc2O)nc1C`, the concentration for half-maximal inhibition (IC50) in assay [2] is 10.3 µM (active); in assay [3], 16.3 µM (active); at Caspase-3, 11 µM (active); in assay [4], 3.4 µM (active).
On to `O=c1c2ccccc2oc2cc(NCCCN3CCOCC3)ccc12`, for which the AC50 in assay [1] is 23.3 µM (active).
Same read-out and setting: for `Cc1nnc2c(N3CCN(CCO)CC3)nc3ccccc3n12` the value was 57.7 µM (active).
In the case of `O=C(Cc1ccccc1F)Nc1ccc(SC(F)F)cc1`, the IC50 in assay [2] is > 100 µM (inactive); in assay [3] it was > 100 µM (inactive); on Caspase-3 it was 41.8 µM (active); in assay [4], 13.7 µM (active).
Consider `CCCNc1nc2nc3ccccn3c(=O)c2cc1C(=O)NCCN1CCOCC1`, for which the AC50 in assay [1] is 32.4 µM (active).
With `O/C(=C\c1nc2ccccc2[nH]1)c1cccs1`, the IC50 in assay [2] was 8.18 µM (active); in assay [3], 13.1 µM (active); at Caspase-3, 9.98 µM (active); in assay [4] it was 7.98 µM (active).
On to `Cc1c(CN2CCCCC2)c(O)n(CCO)c(=O)c1C#N`, for which, in assay [5], the IC50 is > 50 µM (not active).
As to `O=C(/C=C/c1cccs1)c1ccc(N2CCOCC2)cc1`, the IC50 at Protein skinhead-1 is > 100 µM (inactive); in assay [2], 5.47 µM (active); in assay [3], 5.04 µM (active); on Caspase-3 it was 6.94 µM (active); in assay [4] it was 2.77 µM (active).
With `O=C(Nc1ccc(NC(=O)c2cccs2)c(Cl)c1)c1cccs1`, the IC50 in assay [2] is 24.3 µM (active); in assay [3] it was 27.6 µM (active); at Caspase-3, 17.4 µM (active); in assay [4] it was 6.62 µM (active).
In the case of `COc1ccc(N2C(=O)CC(Sc3nc[nH]n3)C2=O)c(OC)c1` (stereo not drawn), in assay [5], the IC50 is recorded as > 50 µM (not active).
